Here are results for 18 compounds from PubChem BioAssay (NCI).

The structures appear in SMILES notation. “And” between values parts separate entries of the source, which are not always exact repeats. Equal values may be shown once.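 Five compound concentrations were applied to cells in 96-well plates for 48 hours; endpoints were derived by simple linear interpolation of the resulting dose-response curve. GI50 marks 50% less growth. TGI is the concentration that stops growth completely.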

Test systems include SW-620 colon; SNB-19 CNS; SK-MEL-2 melanoma; SK-OV-3 ovarian; OVCAR-5 ovarian; HCT-15 colon; UO-31 renal; UACC-62 melanoma; RXF 393 renal; U251 CNS.
Holding throughout (test): NCI tumour cell line growth inhibition, 48 h

Take `CC(C)CCN(CCC(C)C)CC(=O)Nc1ccc(S(=O)(=O)c2ccc(NC(=O)CN(CCC(C)C)CCC(C)C)cc2)cc1`: the GI50 in the experiment on SW-620 colon is 1.55 µM; with SNB-19 CNS, 2.19 µM; in the experiment on SK-MEL-2 melanoma it was 2.11 µM; in the experiment with SK-OV-3 ovarian, 28 µM; in the experiment on OVCAR-5 ovarian it was 2.07 µM; in the experiment on HCT-15 colon, 1.29 µM. The GI50 in the experiment with UO-31 renal is 2.07 µM; with UACC-62 melanoma, 1.55 µM; in the experiment on RXF 393 renal, 1.79 µM. The TGI with SW-620 colon amounted to 3.74 µM; with SNB-19 CNS it was 10.3 µM; in the experiment with SK-MEL-2 melanoma, 6.14 µM; with SK-OV-3 ovarian, 88 µM; in the experiment with OVCAR-5 ovarian, 5.46 µM; in the experiment with HCT-15 colon, 3.89 µM. Besides, the TGI with UO-31 renal is 12.8 µM; with UACC-62 melanoma it was 3.52 µM; in the experiment with RXF 393 renal it was 5.87 µM.
For the compound `C=C(CN(C)C)C(=O)c1ccccc1OC`, the TGI in the experiment on SW-620 colon was 19.6 µM; in the experiment on SNB-19 CNS, over 87.6 µM; in the experiment with SK-MEL-2 melanoma, 30 µM; with SK-OV-3 ovarian, over 66.1 µM; with OVCAR-5 ovarian it was 38.5 µM; in the experiment with U251 CNS, 66.3 µM. Besides, the TGI was 33.3 µM in the experiment on HCT-15 colon, 31.3 µM in the experiment on UO-31 renal, 37 µM with UACC-62 melanoma and 23.7 µM in the experiment with RXF 393 renal.
Turning to `N#Cc1c(-c2ccc([N+](=O)[O-])cc2)c2c([nH]c1=O)-c1ccccc1CCC2`, the TGI in the experiment with SW-620 colon, with SNB-19 CNS, in the experiment with SK-MEL-2 melanoma, in the experiment on SK-OV-3 ovarian, in the experiment with OVCAR-5 ovarian and in the experiment with U251 CNS was over 100 µM throughout. Further, the TGI is over 100 µM in the experiment on HCT-15 colon, over 100 µM with UO-31 renal, over 100 µM with UACC-62 melanoma and 73.8 µM in the experiment with RXF 393 renal.
As to `O=C1OC(c2ccc(O)cc2)(c2ccc(O)cc2)c2ccc(Cl)c3cccc1c23` (tested in a mixture with another compound), the TGI is 33.4 µM with SW-620 colon; over 75 µM with SNB-19 CNS; 31.6 µM with SK-MEL-2 melanoma; over 75 µM with SK-OV-3 ovarian; 20.8 µM with OVCAR-5 ovarian; 25.2 µM in the experiment on U251 CNS. The TGI is 22.8 µM with HCT-15 colon, over 75 µM with UO-31 renal, 21.9 µM in the experiment with UACC-62 melanoma and 27.4 µM in the experiment with RXF 393 renal.
For `CC(=O)OC(C(=O)O)C(OC(C)=O)C(OC(C)=O)C(OC(C)=O)C(=O)O` (stereo unspecified), the TGI with SW-620 colon, with SNB-19 CNS, with SK-MEL-2 melanoma, with SK-OV-3 ovarian, with OVCAR-5 ovarian and with U251 CNS was over 100 µM throughout. For the same compound, the TGI in the experiment with HCT-15 colon, with UO-31 renal and in the experiment on UACC-62 melanoma was over 100 µM in each case.
Regarding `Cc1csc2nc(-c3cccc([N+](=O)[O-])c3)c(/C=N/N=C(N)N)n12`, the TGI in the experiment on SW-620 colon was 2.98 µM; with SK-MEL-2 melanoma, 3.42 µM; in the experiment with SK-OV-3 ovarian it was 3.33 µM; in the experiment with OVCAR-5 ovarian it was 2.98 µM; in the experiment on U251 CNS, 3.4 µM; with HCT-15 colon, 3.71 µM. In addition, the figures for the TGI in the experiment on UO-31 renal and in the experiment with UACC-62 melanoma were 2.68 µM and 2.8 µM, respectively.
As to `O=C(O)c1cc2ccccc2c(N=Nc2ccc(S(=O)(=O)Nc3ccccn3)cc2)c1O`, the TGI with SW-620 colon, with SNB-19 CNS, with SK-MEL-2 melanoma, in the experiment on SK-OV-3 ovarian, in the experiment with OVCAR-5 ovarian and in the experiment with U251 CNS was over 100 µM each time. Besides, the TGI in the experiment with HCT-15 colon, with UO-31 renal, in the experiment with UACC-62 melanoma and with RXF 393 renal was over 100 µM in each case.
Regarding `COc1ccccc1C#C/C=C\C#Cc1ccccc1C#N`, the TGI is 65.7 µM in the experiment with SW-620 colon; over 100 µM in the experiment with SNB-19 CNS; 51.8 µM in the experiment on SK-MEL-2 melanoma; over 100 µM in the experiment with SK-OV-3 ovarian; over 100 µM in the experiment with OVCAR-5 ovarian; over 100 µM with U251 CNS. The TGI in the experiment on HCT-15 colon was over 100 µM; with UO-31 renal it was 67.2 µM; in the experiment with UACC-62 melanoma it was over 100 µM; with RXF 393 renal, 83.5 µM.
For the compound `COC(=O)c1c(O)ccc2c1c1c(n2CCc2ccc(OC)c(OC)c2)C(=O)c2ccccc2C1=O`, the TGI is over 100 µM in the experiment with SNB-19 CNS; 32.8 µM with SK-MEL-2 melanoma; 38.6 µM in the experiment on SK-OV-3 ovarian; 34.1 µM with OVCAR-5 ovarian; 43.2 µM in the experiment on U251 CNS; 29.3 µM in the experiment with HCT-15 colon. Further, the TGI in the experiment with UO-31 renal was 34.6 µM; with UACC-62 melanoma, 32.9 µM; with RXF 393 renal, 39.5 µM.
`Cc1ncc(C(=O)Nc2ccc(CN3CCN(C)CC3)c(C(F)(F)F)c2)cc1C#Cc1cnc(N)c2ccc(C#N)cc12`: the GI50 in the experiment on SK-OV-3 ovarian was 0.02 µM; in the experiment with HCT-15 colon, 0.0485 µM; in the experiment on UACC-62 melanoma, under 0.0108 µM. For the same compound, the TGI in the experiment on SK-OV-3 ovarian was over 100 µM; with HCT-15 colon, 1.5 µM; with UACC-62 melanoma, 0.0717 µM.
Turning to `Brc1ccc(-c2[nH]c3ccccc3c2/C=N\Nc2ccc(-c3nc4ccccc4[nH]3)cc2)cc1`, the TGI in the experiment on SW-620 colon is over 49.5 µM; with SNB-19 CNS, over 100 µM; with SK-MEL-2 melanoma it was over 35.4 µM; with SK-OV-3 ovarian it was over 100 µM; in the experiment on OVCAR-5 ovarian, over 67.1 µM; in the experiment on U251 CNS, over 42.1 µM. Moreover, the TGI was over 37 µM in the experiment on HCT-15 colon, over 100 µM in the experiment with UO-31 renal, over 100 µM with UACC-62 melanoma and over 43.6 µM in the experiment on RXF 393 renal.
With `CC[C@@]1(O)CC(OC2CC(N3CCOCC3)C(O)C(C)O2)c2c(O)c3c(c(O)c2[C@H]1O)C(=O)c1cccc(O)c1C3=O` (stereo partly specified), the GI50 with SW-620 colon is 0.121 µM; with SNB-19 CNS, 0.0292 µM; with SK-OV-3 ovarian, 0.0963 µM; in the experiment on OVCAR-5 ovarian, 0.192 µM; in the experiment with U251 CNS, 0.0287 µM; in the experiment on HCT-15 colon, 0.0358 µM. In addition, the GI50 was 0.437 µM and 0.828 µM in the experiment with UO-31 renal; 0.0389 µM in the experiment on UACC-62 melanoma. Further, the TGI with SW-620 colon is 5.93 µM and 9.38 µM; in the experiment on SNB-19 CNS it was 3.92 µM and 4.16 µM; with SK-MEL-2 melanoma it was 0.959 µM and 1.5 µM; in the experiment on SK-OV-3 ovarian, 1.07 µM and 1.67 µM; in the experiment on OVCAR-5 ovarian it was 2.17 µM and 0.821 µM; with U251 CNS, 1.73 µM and 0.348 µM. In addition, the TGI in the experiment on HCT-15 colon is 1.44 µM and 3.18 µM; in the experiment on UO-31 renal it was 1.57 µM and 3.28 µM; in the experiment on UACC-62 melanoma, 0.428 µM and 0.301 µM; with RXF 393 renal, 0.715 µM and 1.15 µM.
Regarding `O=S(=O)(c1ccccc1)C1CC(c2nc3ccccc3[nH]2)=NO1` (stereo unspecified), the TGI in the experiment with SW-620 colon, in the experiment with SNB-19 CNS, in the experiment with SK-MEL-2 melanoma, in the experiment on SK-OV-3 ovarian, with OVCAR-5 ovarian and with U251 CNS was over 100 µM in each case. The TGI in the experiment on HCT-15 colon, in the experiment with UO-31 renal, in the experiment on UACC-62 melanoma and with RXF 393 renal was over 100 µM throughout.
For `Cc1[nH]c(C(=O)Nc2ccc(C(=O)NCCN)cc2OC(C)C)c(Cl)c1Cl`, the GI50 with SK-MEL-2 melanoma was 1.99 µM; in the experiment on OVCAR-5 ovarian, 1.67 µM; with UO-31 renal it was 1.54 µM; in the experiment on UACC-62 melanoma, 1.7 µM; in the experiment with RXF 393 renal, 1.71 µM. Besides, the TGI in the experiment with SK-MEL-2 melanoma was 3.76 µM; in the experiment with OVCAR-5 ovarian, 3.11 µM; with UO-31 renal, 2.96 µM; in the experiment on UACC-62 melanoma, 3.08 µM; in the experiment with RXF 393 renal, 3.36 µM.
As to `O=C(CSCC(=O)N/N=C\c1ccc(F)cc1F)N/N=C\c1ccc(F)cc1F`, the TGI with SW-620 colon, in the experiment on SNB-19 CNS, with SK-MEL-2 melanoma, in the experiment with SK-OV-3 ovarian, with U251 CNS and with HCT-15 colon was over 100 µM in each case. Besides, the TGI with UO-31 renal, with UACC-62 melanoma and in the experiment on RXF 393 renal was over 100 µM each time.
As for `c1ccc(CSC(SCc2ccccc2)c2cccc3ccccc23)cc1`, the TGI with SW-620 colon, in the experiment on SNB-19 CNS, with SK-MEL-2 melanoma, in the experiment on SK-OV-3 ovarian, in the experiment on OVCAR-5 ovarian and in the experiment on U251 CNS was over 10 µM in each case. For the same compound, the TGI in the experiment on HCT-15 colon, with UO-31 renal, in the experiment with UACC-62 melanoma and in the experiment with RXF 393 renal was over 10 µM throughout.
For `C[n+]1c2ccccc2c(N=[N+]=[N-])c2ccccc21`, the TGI with SW-620 colon, with SNB-19 CNS, in the experiment on SK-MEL-2 melanoma, in the experiment on SK-OV-3 ovarian, with OVCAR-5 ovarian and in the experiment on U251 CNS was over 10 µM in each case. Also, the TGI with HCT-15 colon, with UACC-62 melanoma and in the experiment on RXF 393 renal was over 10 µM each time.
Regarding `C[N+]1(C(CO)Cc2c[nH]c3ccccc23)Cc2ccccc2C1` (stereo unspecified), the TGI in the experiment with SW-620 colon, in the experiment on SNB-19 CNS, in the experiment on SK-MEL-2 melanoma, in the experiment with SK-OV-3 ovarian, in the experiment with OVCAR-5 ovarian and in the experiment on U251 CNS was over 100 µM throughout. Besides, the TGI in the experiment with HCT-15 colon, with UO-31 renal, in the experiment with UACC-62 melanoma and with RXF 393 renal was over 100 µM each time.
